Consider 19 compounds from US20260374756A1, “HETEROCYCLIC COMPOUNDS AS INHIBITORS OF MONOACYLGLYCEROL LIPASE (MAGL)” (Hoffmann-La Roche Inc., priority 2022, published 2026).

For the assay, the target named is T1, hMAGL (Homo sapiens, UniProt Q99685).
T1 sequence (Q99685 1-303): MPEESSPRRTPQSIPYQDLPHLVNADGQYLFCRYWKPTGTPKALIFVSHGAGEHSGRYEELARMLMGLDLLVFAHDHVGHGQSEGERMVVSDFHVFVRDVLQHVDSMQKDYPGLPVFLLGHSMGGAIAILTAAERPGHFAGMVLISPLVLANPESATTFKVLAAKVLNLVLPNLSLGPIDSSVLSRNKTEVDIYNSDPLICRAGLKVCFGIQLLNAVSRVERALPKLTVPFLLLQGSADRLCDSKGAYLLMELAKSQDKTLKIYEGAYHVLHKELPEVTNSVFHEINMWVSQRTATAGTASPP
The assay is described as follows: 2-AG assay: MAGL inhibition, hydrolysis of 2-arachidonoylglycerol to arachidonic acid followed by mass spectrometry. It counts as biochemical. In a few lines: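 Read-out is LC-MS/MS of arachidonic acid released from 2-arachidonoylglycerol (8 μM final), normalised to d8-arachidonic acid internal standard after acetonitrile quench. Enzyme […] and compound were pre-mixed 15 min, then reacted 30 min, both at RT, in Tris/EDTA buffer with 0.01% Tween-20 and 2.5% DMSO.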
As usually defined, the IC50 is the concentration that inhibits the measured activity by half. The low end stands for inhibition by little substance, the high end for a need for much substance. In the case of `O=C(N1CC2(CC(n3cnc(C4(O)CC4)n3)C2)C1)N1CC2(CN(Cc3cc(C(F)(F)F)ns3)C2)C1` [Example 152, [6-[3-(1-hydroxycyclopropyl)-1,2,4-triazol-1-yl]-2-azaspiro[3.3]heptan-2-yl]-[6-[[3-(trifluoromethyl)isothiazol-5-yl]methyl]-2,6-diazaspiro[3.3]heptan-2-yl]methanone], the half-inhibitory concentration (IC50) came to 161 nM.

Regarding `O=C(N1CC2(CC(n3cnc(C(F)(F)F)n3)C2)C1)N1CC2(CN(Cc3cc(C(F)(F)F)ns3)C2)C1` [Example 153, [6-[[3-(trifluoromethyl)isothiazol-5-yl]methyl]-2,6-diazaspiro[3.3]heptan-2-yl]-[6-[3-(trifluoromethyl)-1,2,4-triazol-1-yl]-2-azaspiro[3.3]heptan-2-yl]methanone], the IC50 was 15.3 nM.

The compound `O=C(N1CC2(CC(n3cnc(C4CC4)n3)C2)C1)N1CC2(CN(Cc3cc(C(F)(F)F)ns3)C2)C1` [Example 154, [6-(3-cyclopropyl-1,2,4-triazol-1-yl)-2-azaspiro[3.3]heptan-2-yl]-[6-[[3-(trifluoromethyl)isothiazol-5-yl]methyl]-2,6-diazaspiro[3.3]heptan-2-yl]methanone] yielded an IC50 of 2.64 nM.

`O=C(N1CC2(CC(n3cnc(C4(O)CC4)n3)C2)C1)N1CC2(CN(Cc3cc(C(F)(F)F)sn3)C2)C1` [Example 155, [6-[3-(1-hydroxycyclopropyl)-1,2,4-triazol-1-yl]-2-azaspiro[3.3]heptan-2-yl]-[6-[[5-(trifluoromethyl)isothiazol-3-yl]methyl]-2,6-diazaspiro[3.3]heptan-2-yl]methanone] showed an IC50 of 86.8 nM.

The compound `O=C(N1CC2(CC(n3cnc(C4CC4)n3)C2)C1)N1CC2(CN(Cc3cc(C(F)(F)F)sn3)C2)C1` [Example 156, [6-(3-cyclopropyl-1,2,4-triazol-1-yl)-2-azaspiro[3.3]heptan-2-yl]-[6-[[5-(trifluoromethyl)isothiazol-3-yl]methyl]-2,6-diazaspiro[3.3]heptan-2-yl]methanone] returned a 50% inhibitory concentration (IC50) of 3.8 nM.

Regarding `Cn1ncc(C(F)(F)F)c1CN1CC2(C1)CN(C(=O)N1CC3(CC(c4cc(C5CC5)n[nH]4)C3)C1)C2` [Example 157, [6-(3-cyclopropyl-1H-pyrazol-5-yl)-2-azaspiro[3.3]heptan-2-yl]-[6-[[2-methyl-4-(trifluoromethyl)pyrazol-3-yl]methyl]-2,6-diazaspiro[3.3]heptan-2-yl]methanone], the IC50 worked out at 0.63 nM.

As to `Cn1ncc(C(F)(F)F)c1CN1CC2(C1)CN(C(=O)N1CC3(CC(n4cnc(C(F)(F)F)n4)C3)C1)C2` [Example 158, [6-[[2-methyl-4-(trifluoromethyl)pyrazol-3-yl]methyl]-2,6-diazaspiro[3.3]heptan-2-yl]-[6-[3-(trifluoromethyl)-1,2,4-triazol-1-yl]-2-azaspiro[3.3]heptan-2-yl]methanone], the IC50 came out at 9.26 nM.

In turn, `Cn1ncc(C(F)(F)F)c1CN1CC2(C1)CN(C(=O)N1CC3(CC(n4cnc(C5CC5)n4)C3)C1)C2` [Example 159, [6-(3-cyclopropyl-1,2,4-triazol-1-yl)-2-azaspiro[3.3]heptan-2-yl]-[6-[[2-methyl-4-(trifluoromethyl)pyrazol-3-yl]methyl]-2,6-diazaspiro[3.3]heptan-2-yl]methanone] gave an IC50 of 2.2 nM.

Compound `Cn1nc(CN2CC3(C2)CN(C(=O)N2CC4(CC(c5cc(C6CC6)n[nH]5)C4)C2)C3)cc1C(F)(F)F` [Example 160] came in with a 50% inhibitory concentration (IC50) of 2.08 nM.

In turn, `Cn1nc(CN2CC3(C2)CN(C(=O)N2CC4(CC(n5cnc(C(F)(F)F)n5)C4)C2)C3)cc1C(F)(F)F` [Example 161, [6-[[1-methyl-5-(trifluoromethyl)pyrazol-3-yl]methyl]-2,6-diazaspiro[3.3]heptan-2-yl]-[6-[3-(trifluoromethyl)-1,2,4-triazol-1-yl]-2-azaspiro[3.3]heptan-2-yl]methanone] yielded an IC50 of 2.39 nM.

Consider `Cn1nc(CN2CC3(C2)CN(C(=O)N2CC4(CC(n5cnc(C6CC6)n5)C4)C2)C3)cc1C(F)(F)F` [Example 162, [6-(3-cyclopropyl-1,2,4-triazol-1-yl)-2-azaspiro[3.3]heptan-2-yl]-[6-[[1-methyl-5-(trifluoromethyl)pyrazol-3-yl]methyl]-2,6-diazaspiro[3.3]heptan-2-yl]methanone], for which the IC50 was determined as 5.27 nM.

In turn, `Cn1ncc(CN2CC3(C2)CN(C(=O)N2CC4(CC(c5cc(C6CC6)n[nH]5)C4)C2)C3)c1C(F)(F)F` [Example 163, [6-(3-cyclopropyl-1H-pyrazol-5-yl)-2-azaspiro[3.3]heptan-2-yl]-[6-[[1-methyl-5-(trifluoromethyl)pyrazol-4-yl]methyl]-2,6-diazaspiro[3.3]heptan-2-yl]methanone] displayed a concentration for half-maximal inhibition (IC50) of 3.3 nM.

`Cn1ncc(CN2CC3(C2)CN(C(=O)N2CC4(CC(n5cnc(C(F)(F)F)n5)C4)C2)C3)c1C(F)(F)F` [Example 164, [6-[[1-methyl-5-(trifluoromethyl)pyrazol-4-yl]methyl]-2,6-diazaspiro[3.3]heptan-2-yl]-[6-[3-(trifluoromethyl)-1,2,4-triazol-1-yl]-2-azaspiro[3.3]heptan-2-yl]methanone] yielded a half-inhibitory concentration (IC50) of 27.3 nM.

For the compound `Cn1ncc(CN2CC3(C2)CN(C(=O)N2CC4(CC(n5cnc(C6CC6)n5)C4)C2)C3)c1C(F)(F)F` [Example 165, [6-(3-cyclopropyl-1,2,4-triazol-1-yl)-2-azaspiro[3.3]heptan-2-yl]-[6-[[1-methyl-5-(trifluoromethyl)pyrazol-4-yl]methyl]-2,6-diazaspiro[3.3]heptan-2-yl]methanone], the midpoint of inhibition, the IC50, lay at 4.46 nM.

Regarding `Cn1nc(C(F)(F)F)cc1CN1CC2(C1)CN(C(=O)N1CC3(CC(n4cnc(C(F)(F)F)n4)C3)C1)C2` [Example 166], half-maximal inhibition (IC50) required 20.3 nM.

`Cn1nc(C(F)(F)F)cc1CN1CC2(C1)CN(C(=O)N1CC3(CC(n4cnc(C5CC5)n4)C3)C1)C2` [Example 167, [6-(3-cyclopropyl-1,2,4-triazol-1-yl)-2-azaspiro[3.3]heptan-2-yl]-[6-[[2-methyl-5-(trifluoromethyl)pyrazol-3-yl]methyl]-2,6-diazaspiro[3.3]heptan-2-yl]methanone] showed a 50% inhibitory concentration (IC50) of 5.6 nM.

In the case of `CCn1nc(C(F)(F)F)cc1CN1CC2(C1)CN(C(=O)N1CC3(CC(n4cnc(C5(O)CC5)n4)C3)C1)C2` [Example 168, [6-[[2-ethyl-5-(trifluoromethyl)pyrazol-3-yl]methyl]-2,6-diazaspiro[3.3]heptan-2-yl]-[6-[3-(1-hydroxycyclopropyl)-1,2,4-triazol-1-yl]-2-azaspiro[3.3]heptan-2-yl]methanone], the midpoint of inhibition, the IC50, lay at 45.6 nM.

In the case of `CCn1nc(C(F)(F)F)cc1CN1CC2(C1)CN(C(=O)N1CC3(CC(n4cnc(C(F)(F)F)n4)C3)C1)C2` [Example 169], the IC50 is 8.89 nM.

The compound `CCn1nc(C(F)(F)F)cc1CN1CC2(C1)CN(C(=O)N1CC3(CC(n4cnc(C5CC5)n4)C3)C1)C2` [Example 170, [6-(3-cyclopropyl-1,2,4-triazol-1-yl)-2-azaspiro[3.3]heptan-2-yl]-[6-[[2-ethyl-5-(trifluoromethyl)pyrazol-3-yl]methyl]-2,6-diazaspiro[3.3]heptan-2-yl]methanone] showed an IC50 of 2.23 nM.
